How the values were obtained:
TSA adenocarcinoma = assay: In-vivo assay on mice, TSA tumour growth, MARIGENOL 0,1% microemulsions; parameters: species or system mice (Balb-c); key: + swelling; details: 0,1% microemulsion
Method: The in-vivo assays were carried out on female mice. Old Balb-c strain animals of 28-32 g body weight were used (Charles River, Milan). Used as comparison standards throughout was the spontaneous adenocarcinoma TSA, a murine tumour cell line which was provided regularly by Prof. Guido Forni, Istituto di Microbiologia, Universita degli Studi di Torino, Scuola di Medicina.
A series of groups of 5 test animals each were fed with ordinary test feed (NAFAG complete feed No. 850, from Nahr- und Futtermittel AG, Gossau).
14 days after the introduction (average latency period), the newly-formed tissue is palpitated; ditto after 21 and after 28 days, and in some cases 35, days. The mean of the length and width of the solid, distinct tumour mass under the skin is determined (postmortem recheck).
To test the activity of the preparations in live organisms, the remaining test animals receive a daily dose of 0.25 ml of a test preparation by tube, in addition to the ordinary test feed. After an adaptation period of 5-7 days, the tumour is introduced, likewise inguinally, with 80-100'000 TSA units, as for the controls. It takes in every single case, in the group and on repetition, thus permitting the statistical groups to be kept to a relatively low number.
The experimental set-up is the same as in the case of gavage. Instead of using a tube, the preparations to be tested are administered inguinally by injection (right flank, subcutaneously), at a rate of 0.25 ml 3 times per week.

[1] = system: TSA: murine adenocarcinoma (spontaneous cancer of the breast); assay: In-vitro plaque assay of MARIGENOL microemulsions, greatest cytotoxic dilution, TSA; assay type: cell-based; details: cell line TSA; 5 h; microemulsion 0,1%
Method: A biological assay system using microtiter plates and serial dilutions has been developed Batches of 10^4 tumour cells per ml were set up in culture medium RPMI 1640 and […] with 10% of fetal calf serum (GIBCO); the cells are spread at a density low enough to enable them to grow during the assay in so-called non-confluent monolayers. Samples are added after 6-24 hours, with 100 μl per row, to which 100 μl of medium are added in the first well. Half of this mixture is withdrawn, transferred into the next well and again treated with 100 μl of medium, etc.
In the plaque assay, the samples are incubated at 37° C. for 3-5 days under 31/2% of CO2. They are then stained and fixed using 0.1% crystal violet (Fluka, Buchs) in a solution of 70% of methanol, 1% of formaldehyde and 29% water. The samples are evaluated under the microscope, magnification 300×. The greatest cytotoxic dilution is determined. The samples can also be evaluated quantitatively by means of scanning and absorption measurement in a spectrophotometer.

CC/C=C\C/C=C\C/C=C\CCCCCCCC(=O)O[C@H]1CC[C@@]2(C)C(=CC[C@H]3[C@@H]4CC[C@H]([C@H](C)CC[C@@H](CC)C(C)C)[C@@]4(C)CC[C@@H]32)C1 [C 18:3-SITOSTEROL, stigmast-5-en-3-ol-9,12,15-octadecatrienoate]
Tumor mass Σ1/2 L + B (TSA adenocarcinoma; TSA after 14 days): + | Tumor mass Σ1/2 L + B (TSA adenocarcinoma; TSA after 21 days): + | Tumor mass Σ1/2 L + B (TSA adenocarcinoma; TSA after 28 days): 1 mm

CCCCCCCCCCCCCCCC(=O)O[C@H]1CC[C@@]2(C)C(=CC[C@H]3[C@@H]4CC[C@H]([C@H](C)/C=C/[C@@H](CC)C(C)C)[C@@]4(C)CC[C@@H]32)C1 [C 16:0 STIGMASTEROL, STIGMASTEROL-PALMITATE]
Active in dilution to 1: [1]: 80 1:

CCCCC/C=C\C/C=C\CCCCCCCC(=O)O[C@H]1CC[C@@]2(C)C(=CC[C@H]3[C@@H]4CC[C@H]([C@H](C)CC[C@@H](CC)C(C)C)[C@@]4(C)CC[C@@H]32)C1 [β-Sitosterol-linoleate, stigmast-5-en-3-ol-9,12-octadecadienoate]
Tumor mass Σ1/2 L + B (TSA adenocarcinoma; TSA after 14 days): 0 mm | Tumor mass Σ1/2 L + B (TSA adenocarcinoma; TSA after 21 days): + | Tumor mass Σ1/2 L + B (TSA adenocarcinoma; TSA after 28 days): 1 mm

β-SITOSTEROLUNDECENOATE [C 11:1-SITOSTEROL]
Active in dilution to 1: [1]: 40 1:

stigmasta-5,22-dien-3-ol-doiecenoate [Stigmasterol-dodecenoate]
Tumor mass Σ1/2 L + B (TSA adenocarcinoma; TSA after 14 days): 0 mm | Tumor mass Σ1/2 L + B (TSA adenocarcinoma; TSA after 21 days): 0 mm | Tumor mass Σ1/2 L + B (TSA adenocarcinoma; TSA after 28 days): 2 mm

stigmast-5-en 3-ol-dodecenoate [C 12:1-SITOSTEROL]
Tumor mass Σ1/2 L + B (TSA adenocarcinoma; TSA after 14 days): 1 mm | Tumor mass Σ1/2 L + B (TSA adenocarcinoma; TSA after 21 days): 0 mm | Tumor mass Σ1/2 L + B (TSA adenocarcinoma; TSA after 28 days): 2 mm | Active in dilution to 1: [1]: 640 1:

— US5270041A, “Sterols, their fatty acid esters and glucosides; processes for their preparation; spontaneously dispersible agents containing these compounds, and their use for treatment of tumors” (Marigen S.A., priority 1989, dated 1993)
